For one assay, the system named is DU-145. Kind of assay: Cytotoxicity against human DU-145 cells assessed as inhibition of cell growth incubated for 4 days by CCK-8 assay. Particulars: DU-145, 96 h. Type of assay: functional, cell-based. Background: Tetrazolium assays rely on reduction of a dye to a coloured formazan, in cell work by metabolically active cells.
The next assay has as its system HCT-116. Kind of assay: Cytotoxicity against human HCT-116 cells assessed as inhibition of cell growth incubated for 4 days by CCK-8 assay. Type of assay: functional, cell-based. Particulars: HCT-116, 96 h.

The values that follow come from ChEMBL document CHEMBL5226378, “Transformation of Renieramycin M into Renieramycins T and S by Intramolecular Photoredox Reaction of 7-Methoxy-6-methyl-1,2,3,4-tetrahydroisoquinoline-5,8-dione Derivatives” (J Nat Prod, 2023).

Broadly, the pIC50 is the negative decadic logarithm of the IC50, by convention in mol/L.

Molecules are shown by their SMILES. pIC50: −log10 of the molar value.

As to `C/C=C(/C)C(=O)OC[C@H]1c2c(c(OC(C)=O)c(C)c3c2OCO3)C[C@H]2[C@H]3C4=C(C[C@@H]([C@H](C#N)N12)N3C)C(=O)C(C)=C(OC)C4=O`, the pIC50 in the assay on DU-145 and with HCT-116 was 7.49 each time.

For the compound `C/C=C(/C)C(=O)OC[C@H]1c2c(c(O)c(C)c3c2OCO3)C[C@H]2[C@H]3C4=C(C[C@@H]([C@H](C#N)N12)N3C)C(=O)C(C)=C(OC)C4=O`, the pIC50 with DU-145 was 7.30; in the assay on HCT-116, 7.09.

Regarding `COC1=C(C)C(=O)C2=C(C1=O)[C@@H]1[C@@H]3Cc4c(OC(C)=O)c(C)c5c(c4[C@H](CNC(=O)C(C)=O)N3[C@@H](C#N)[C@H](C2)N1C)OCO5`, the results for the pIC50 in the assay on DU-145 and in the assay on HCT-116 were 8.22 and 7.57, respectively.

For `COC1=C(C)C(=O)C2=C(C1=O)[C@@H]1[C@@H]3CC4=C(C(=O)C(O)=C(C)C4=O)[C@H](CNC(=O)C(C)=O)N3[C@@H](C#N)[C@H](C2)N1C`, the negative-log IC50 (pIC50) is 6.17 in the assay on DU-145 and 5.92 in the assay on HCT-116.

Regarding `C/C=C(/C)C(=O)OC[C@H]1c2c(c(O)c(C)c3c2OCO3)C[C@H]2CN(C)C[C@H](C#N)N21`, the pIC50 in the assay on DU-145 and with HCT-116 was below 4.70 in each case.

In the case of `COC1=C(C)C(=O)C2=C(C1=O)[C@@H]1[C@@H]3Cc4c(O)c(C)c5c(c4[C@H](CNC(=O)C(C)=O)N3[C@@H](C#N)[C@H](C2)N1C)OCO5`, the figures for the pIC50 in the assay on DU-145 and with HCT-116 were 6.85 and 6.64, respectively.

Take `C/C=C(/C)C(=O)OC[C@H]1C2=C(C[C@H]3CN(C)C[C@H](C#N)N31)C(=O)C(C)=C(OC)C2=O`: the pIC50 with DU-145 was 5.14; in the assay on HCT-116, 5.66.

For the compound `C/C=C(/C)C(=O)OC[C@H]1C2=C(C[C@H]3[C@H]4C5=C(C[C@@H]([C@H](C#N)N13)N4C)C(=O)C(C)=C(OC)C5=O)C(=O)C(C)=C(OC)C2=O` [RENIERAMYCIN M], the pIC50 was 8.40 in the assay on DU-145 and 7.74 in the assay with HCT-116.

`C/C=C(/C)C(=O)OC[C@H]1C2=C(C[C@H]3[C@H]4C5=C(C[C@@H]([C@H](C#N)N13)N4C)C(=O)C(C)=C(OC)C5=O)C(=O)C(C)=C(O)C2=O` [RENIERAMYCIN S]: the pIC50 in the assay on DU-145 is 7.14; with HCT-116, 6.80.

With `COC1=C(C)C(=O)C2=C(C1=O)[C@@H]1[C@@H]3CC4=C(C(=O)C(OC)=C(C)C4=O)[C@H](CNC(=O)C(C)=O)N3[C@@H](C#N)[C@H](C2)N1C` [SAFRAMYCIN A], the negative-log IC50 (pIC50) in the assay on DU-145 was 8.10; with HCT-116, 7.70.
